Patent US20050197338A1, “Substituted pyrazole urea compounds for the treatment of inflammation” (priority 2003, published 2005)
Structures can show the parent of a compound that is named as a salt.

Target: T1, human IKK-2 (rhIKK-2 homodimer) (Homo sapiens, UniProt O14920)
T1 construct: FLAG (DYKDDDDKD) (C); made in house; host or cells: insect cells (baculovirus, pFastBac)
T1 sequence (O14920 1-756): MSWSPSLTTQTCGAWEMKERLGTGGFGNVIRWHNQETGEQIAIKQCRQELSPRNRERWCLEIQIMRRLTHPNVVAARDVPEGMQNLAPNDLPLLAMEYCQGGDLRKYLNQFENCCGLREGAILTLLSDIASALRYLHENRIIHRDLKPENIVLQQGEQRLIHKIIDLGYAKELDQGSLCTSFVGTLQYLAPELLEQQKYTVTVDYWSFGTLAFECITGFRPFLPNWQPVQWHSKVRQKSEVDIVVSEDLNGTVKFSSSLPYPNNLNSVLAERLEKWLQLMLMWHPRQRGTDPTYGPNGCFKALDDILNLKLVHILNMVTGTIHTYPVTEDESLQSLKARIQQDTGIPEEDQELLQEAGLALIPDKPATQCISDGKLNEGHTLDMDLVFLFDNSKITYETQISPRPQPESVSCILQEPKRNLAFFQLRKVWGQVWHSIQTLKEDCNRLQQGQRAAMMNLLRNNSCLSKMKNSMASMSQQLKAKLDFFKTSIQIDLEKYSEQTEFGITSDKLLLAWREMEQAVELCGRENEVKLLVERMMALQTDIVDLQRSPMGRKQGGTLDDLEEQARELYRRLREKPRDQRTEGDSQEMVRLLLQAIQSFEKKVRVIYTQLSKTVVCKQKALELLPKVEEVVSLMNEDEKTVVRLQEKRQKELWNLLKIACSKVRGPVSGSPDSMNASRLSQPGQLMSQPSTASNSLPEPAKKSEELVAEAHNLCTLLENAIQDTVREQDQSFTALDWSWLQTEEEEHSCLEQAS
Test: IKK-2 Resin Enzyme Assay (Human IKK-2 Enzyme Assay)
Assay type: biochemical
Conditions: human IKK-2, resin enzyme assay; read-out: IC50 (μM) hIKK-2
From the text: Materials: SAM^2™96 Biotin capture plates were from Promega. Anti-FLAG affinity resin, FLAG-peptide, NP-40 (Nonidet P-40), BSA, ATP, ADP, AMP, LPS (E. coli serotype 0111:B4), and dithiothreitol were obtained from Sigma Chemicals. Antibodies specific for NEMO (IKK-γ) (FL-419), IKK-1 (H-744), IKK-2(H-470) and IκBa(C-21) were purchased from Santa Cruz Biotechnology. Ni-NTA resin was purchased from Qiagen. Peptides were purchased from American Peptide Company. Protease inhibitor cocktail tablets were from Boehringer Mannheim. Sephacryl S-300 column was from Pharmacia LKB Biotechnology. Centriprep-10 concentrators with a molecular weight cutoff of 10 kDa and membranes with molecular weight cut-off of 30 kDa were obtained from Amicon. [γ-^33P] ATP (2500 Ci/mmol) and [γ-^32P] ATP (6000 Ci/mmol) were purchased from Amersham. The other reagents used were of the highest grade commercially available.
Cloning and Expression: cDNAs of human IKK-1 and IKK-2 were amplified by reverse transcriptase-polymerase chain reaction from human placental RNA (Clonetech). hlKK-1 was subcloned into pFastBac HTa (Life Technologies) and expressed as N-terminal His6-tagged fusion protein. The hlKK-2 cDNA was amplified using a reverse oligonucleotide primer which incorporated the peptide sequence for a FLAG-epitope tag at the C-terminus of the IKK-2 coding region (DYKDDDDKD). The hlKK-2:FLAG cDNA was subcloned into the baculovirus vector pFastBac. The rhIKK-2 ([…]) mutant was constructed in the same vector used for wild type rhIKK-2 using a QuikChange™ mutagenesis kit (Stratagene). Viral stocks of each construct were used to infect insect cells grown in 40 L suspension culture. […] Cell lysates were stored at −80° C. until purification of the recombinant proteins was undertaken as described below.
Enzyme Isolation: All purification procedures were carried out at 4° C. unless otherwise noted. Buffers used are: buffer A: 20 mM Tris-HCl, pH 7.6, containing 50 mM NaCl, 20 mM NaF, 20 mM β-Glycerophosphate, 500 μM sodium orthovanadate, 2.5 mM metabisulfite, 5 mM benzamidine, 1 mM EDTA, 0.5 mM EGTA, 10% glycerol, 1 mM DTT, 1× Complete™ protease inhibitors; buffer B: same as buffer A, except 150 mM NaCl, and buffer C: same as buffer A, except 500 mM NaCl.
Isolation of rhIKK-2 homodimer: A 10-liter culture of baculovirus-expressing IKK-2 tagged with FLAG peptide was centrifuged and the cell pellet (MOI=0.1 and 1=72 h) was re-suspended in buffer A. These cells were microfluidized, and centrifuged at 100,000×g for 45 min. Supernatant was passed over a G-25 column equilibrated with Buffer A. Protein peak was collected and incubated with anti-FLAG affinity resin on a rotator overnight in buffer B. The resin was washed in batch with 10-15 bed volumes of buffer C. Washed resin was poured into a column and rhIKK-2 homodimer was eluted using 5 bed volumes of buffer B containing FLAG peptide. 5 mM DTT, 0.1% NP-40 and BSA (concentrated to 0.1% in final amount) was added to the eluted enzyme before concentrating in using an Amicon membrane with a molecular weight cut-off of 30 kDa. Enzyme was aliquoted and stored at −80° C.
IKK-2 Resin Enzyme Assay: IKK-2 kinase activity was measured using a biotinylated IκBα peptide (Gly-Leu-Lys-Lys-Glu-Arg-Leu-Leu-Asp-Asp-Arg-His-Asp-Ser32-Gly-Leu-Asp-Ser36-Met-Lys-Asp-Glu-Glu) (American Peptide Co.). 20 μL of the standard reaction mixture contained 5 μM biotinylated IκBα peptide, 0.1 μCi/reaction [γ-^33P] ATP (Amersham) (about 1×10^5 cpm), 1 μM ATP (Sigma), 1 mM DTT (Sigma), 2 mM MgCl2 (Sigma), 2 mM MnCl2 (Sigma), 10 mM NaF (Sigma), 25 mM Hepes (Sigma) buffer, pH 7.6 and 20 μL enzyme solution and 10 μL inhibitor in a final volume of 50 μL. After incubation at 25° C. for 30 min, 150 μL resin (Dowex anion-exchange resin AG1X8 200-400 mesh) in 900 mM formate, pH 3.0 was added to each well to stop the reaction. Resin was allowed to settle for 1 h and 50 μL of supernatant was removed to a Micolite-2 flat bottom plate (Dynex). […]

IC50	Compound
10.7 µM	NC(=O)NC(=O)Nc1cn(-c2ccc(Br)c(C(F)(F)F)c2)nc1C(N)=O [Example 2, 4-({[(aminocarbonyl)amino]carbonyl}amino)-1-[4-bromo-3-(trifluoromethyl)phenyl]-1H-pyrazole-3-carboxamide]
0.546 µM	NC(=O)Nc1cn(-c2ccc(I)c(Cl)c2)nc1C(N)=O [Example 6, 4-[(aminocarbonyl)amino]-1-(3-chloro-4-iodophenyl)-1H-pyrazole-3-carboxamide]
1.43 µM	NC(=O)Nc1cn(-c2ccc(C(=O)N3CCOCC3)cc2)nc1C(N)=O [Example 9, 4-[(aminocarbonyl)amino]-1-[4-(morpholin-4-yl-carbonyl)phenyl]-1H-pyrazole-3-carboxamide]
2.91 µM	COc1ccc(-n2cc(NC(N)=O)c(C(N)=O)n2)cc1 [Example 10, 4-[(aminocarbonyl)amino]-1-(4-methoxyphenyl)-1H-pyrazole-3-carboxamide trifluoroacetate]
6.36 µM	COc1ccc(Cc2cccc(-n3cc(NC(N)=O)c(C(N)=O)n3)c2)cc1OC [Example 11, 4-[(aminocarbonyl)amino]-1-[3-(3,4-dimethoxybenzyl)phenyl]-1H-pyrazole-3-carboxamide]
1.43 µM	NC(=O)c1nn(-c2cccc(Br)c2)cc1NC(N)=S [Example 12, 4-[(aminocarbonothioyl)amino]-1-(3-bromophenyl)-1H-pyrazole-3-carboxamide]
0.38 µM	NC(=O)Nc1cn(-c2cccc(-c3ccnc(Cl)c3)c2)nc1C(N)=O [Example 13, 4-[(aminocarbonyl)amino]-1-[3-(2-chloropyridin-4-yl)phenyl]-1H-pyrazole-3-carboxamide]
8.95 µM	COc1cc(-c2cccc(-n3cc(NC(N)=O)c(C(N)=O)n3)c2)c(Cl)cn1 [Example 14, trifluoroacetate]
1.72 µM	CNC(=O)Nc1cn(-c2ccc(I)cc2)nc1C(N)=O [Example 17, 1-(4-iodophenyl)-4-{[(methylamino)carbonyl]amino}-1H-pyrazole-3-carboxamide]
0.3 µM	Cc1ccc(-n2cc(NC(N)=O)c(C(N)=O)n2)cc1 [Example 18, 4-[(aminocarbonyl)amino]-1-(4-methylphenyl)-1H-pyrazole-3-carboxamide]
0.61 µM	NC(=O)Nc1cn(-c2cccc(Br)c2)nc1C(N)=O [Example 20, 4-[(aminocarbonyl)amino]-1-(3-bromophenyl)-1H-pyrazole-3-carboxamide]
2.86 µM	NC(=O)Nc1cn(-c2ccc(-c3cccnc3)cc2)nc1C(N)=O [Example 21, 4-[(aminocarbonyl)amino]-1-(4-pyridin-3-ylphenyl)-1H-pyrazole-3-carboxamide]
1.2 µM	NC(=O)Nc1cn(-c2ccc(-c3cccc(O)c3)cc2)nc1C(N)=O [Example 22, 4-[(aminocarbonyl)amino]-1-(3′-hydroxy-1,1′-biphenyl-4-yl)-1H-pyrazole-3-carboxamide]
1.64 µM	NC(=O)Nc1cn(-c2ccc(-c3ccccc3O)cc2)nc1C(N)=O [Example 23, 4-[(aminocarbonyl)amino]-1-(2′-hydroxy-1,1′-biphenyl-4-yl)-1H-pyrazole-3-carboxamide]
7.73 µM	NC(=O)Nc1cn(-c2ccc(-c3cccc(OC(F)(F)F)c3)cc2)nc1C(N)=O [Example 24, 4-[(aminocarbonyl)amino]-1-[3′-(trifluoromethoxy)-1,1′-biphenyl-4-yl]-1H-pyrazole-3-carboxamide]
1.55 µM	NC(=O)Nc1cn(-c2ccc(-c3ccc(F)cc3)cc2)nc1C(N)=O [Example 25, 4-[(aminocarbonyl)amino]-1-(4′-fluoro-1,1′-biphenyl-4-yl)-1H-pyrazole-3-carboxamide]
0.59 µM	NC(=O)Nc1cn(-c2ccc(-c3ccc[nH]3)cc2)nc1C(N)=O [Example 26, 4-[(aminocarbonyl)amino]-1-[4-(1H-pyrrol-2-yl)phenyl]-1H-pyrazole-3-carboxamide]
1.36 µM	N#CCc1cccc(-c2ccc(-n3cc(NC(N)=O)c(C(N)=O)n3)cc2)c1 [Example 27, 4-[(aminocarbonyl)amino]-1-[3′-(cyanomethyl)-1,1′-biphenyl-4-yl]-1H-pyrazole-3-carboxamide]
2.79 µM	NCc1cccc(-c2ccc(-n3cc(NC(N)=O)c(C(N)=O)n3)cc2)c1 [Example 28, 4-[(aminocarbonyl)amino]-1-[3′-(aminomethyl)-1,1′-biphenyl-4-yl]-1H-pyrazole-3-carboxamide]
0.53 µM	COC(=O)c1ccc(-c2ccc(-n3cc(NC(N)=O)c(C(N)=O)n3)cc2)c(N)c1 [Example 29, methyl 2-amino-4′-{3-(aminocarbonyl)-4-[(aminocarbonyl)amino]-1H-pyrazol-1-yl}-1,1′-biphenyl-4-carboxylate]
3 µM	NC(=O)Nc1cn(-c2ccc(-c3ccccc3F)cc2)nc1C(N)=O [Example 30, 4-[(aminocarbonyl)amino]-1-(2′-fluoro-1,1′-biphenyl-4-yl)-1H-pyrazole-3-carboxamide]
4.79 µM	CC(C)(C)NC(=O)c1cccc(-c2ccc(-n3cc(NC(N)=O)c(C(N)=O)n3)cc2)c1 [Example 31, 4-[(aminocarbonyl)amino]-1-{3′-[(tert-butylamino)carbonyl]-1,1′-biphenyl-4-yl}-1H-pyrazole-3-carboxamide]
1.16 µM	N#C/C=C/c1cccc(-c2ccc(-n3cc(NC(N)=O)c(C(N)=O)n3)cc2)c1 [Example 32, 4-[(aminocarbonyl)amino]-1-{3′-[(E)-2-cyanovinyl]-1,1′-biphenyl-4-yl}-1H-pyrazole-3-carboxamide]
0.89 µM	NC(=O)Nc1cn(-c2ccc(-c3ccc(C(=O)Nc4ccccn4)cc3)cc2)nc1C(N)=O [Example 33, 4-[(aminocarbonyl)amino]-1-{4′-[(pyridin-2-ylamino)carbonyl]-1,1′-biphenyl-4-yl}-1H-pyrazole-3-carboxamide]
